Tests used:
[1] = tested on: COX-2; conditions: no COX-2 method in this paper, ref Duggan et al.[42], cited from earlier work
[2] = molecular target: T1, AKR1C3 (Homo sapiens, UniProt P42330); test: S-tetralol oxidation assay, AKR1C3; format: biochemical
T1 sequence (P42330 1-323): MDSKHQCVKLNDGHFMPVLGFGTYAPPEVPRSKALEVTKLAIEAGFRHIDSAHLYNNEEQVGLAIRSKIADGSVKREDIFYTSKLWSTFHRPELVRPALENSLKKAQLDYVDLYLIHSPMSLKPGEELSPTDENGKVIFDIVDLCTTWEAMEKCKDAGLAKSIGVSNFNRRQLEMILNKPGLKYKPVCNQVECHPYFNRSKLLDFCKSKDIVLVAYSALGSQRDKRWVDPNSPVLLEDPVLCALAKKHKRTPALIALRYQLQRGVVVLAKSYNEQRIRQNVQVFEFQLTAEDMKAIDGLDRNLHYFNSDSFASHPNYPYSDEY

[3] = tested on: PSA expression in LNCaP-AKR1C3 cells; test: Δ4-AD induced PSA expression in LNCaP-AKR1C3 cells; format: cell-based; conditions: 100 nM Δ4-AD, 30 µM compound, 24 h
[4] = molecular target: T1, AKR1C3; test: AKR1C3 catalyzed NADPH dependent reduction of [3H]-Δ4-AD; format: biochemical
[5] = molecular target: T2, AKR1C2 (Homo sapiens, UniProt P52895); conditions: 5α-DHT reduction, <100 µM concentrations
T2 sequence (P52895 1-323): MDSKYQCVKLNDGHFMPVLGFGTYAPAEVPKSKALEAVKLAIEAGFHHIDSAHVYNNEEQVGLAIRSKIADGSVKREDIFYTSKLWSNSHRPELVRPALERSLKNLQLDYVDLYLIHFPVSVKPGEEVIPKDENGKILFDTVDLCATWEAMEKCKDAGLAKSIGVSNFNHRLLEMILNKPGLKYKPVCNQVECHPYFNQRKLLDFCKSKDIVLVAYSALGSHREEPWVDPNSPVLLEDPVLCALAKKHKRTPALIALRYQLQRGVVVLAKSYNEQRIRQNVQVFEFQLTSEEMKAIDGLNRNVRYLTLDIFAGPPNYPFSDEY

[6] = molecular target: T1, AKR1C3; test: Radiometric assay of androgen metabolism; format: cell-based; conditions: LNCaP-AKR1C3 cells, 100 nM Δ4-AD, 30 µM compound, 48 h

Structure (SMILES): CC[C@H](C(=O)O)c1ccc2cc(OC)ccc2c1 [(S)-14b]
- COX-2 IC50 (µM) [1]: no inhibition ^a

Structure (SMILES): CSc1ccc2cc(C(C)C(=O)O)ccc2c1 (racemic) [(±)-9, 2-(6-(Methylthio)naphthalen-2-yl)propanoic Acid]
- increase in the inhibitory potency for AKR1C3 over that seen with naproxen ([2]; S-tetralol oxidation): 3 fold

Structure (SMILES): CC(C(=O)O)c1ccc2cc([S+](C)[O-])ccc2c1 (racemic) [(±)-10, 2-(6-(Methylsulfinyl)naphthalen-2-yl)propanoic Acid]
- loss of inhibitory potency on AKR1C3 compared to 9 ([2]; S-tetralol oxidation): greater than 15 fold

Structure (SMILES): CC[C@@H](C(=O)O)c1ccc2cc(OC)ccc2c1 [(R)-14a, (R)-2-(6-methoxynaphthalen-2-yl)butanoic acid]
- Δ4-AD induced increase in PSA expression [3]: reduced
- mode of AKR1C3 inhibition ([2]; oxidation of S-tetralol): competitively inhibited
- mode of AKR1C3 inhibition [4]: same mode of inhibition
- inhibition of AKR1C2 [5]: did not display any significant inhibition
- production of [3H]-testosterone glucuronide [6]: significantly inhibited
- COX-2 IC50 (µM) [1]: no inhibition ^a

Structure (SMILES): COc1ccc2cc([C@@H](C)C(=O)O)ccc2c1 [R-naproxen (1a), reference compound]
- IC50 ([1]; read-out: COX-2 IC50): > 25 µM

Structure (SMILES): CC(C(=O)O)c1ccc2cc(S(C)(=O)=O)ccc2c1 (racemic) [(±)-11, 2-(6-(Methylsulfonyl)naphthalen-2-yl)propanoic Acid]
- loss of inhibitory potency on AKR1C3 compared to 9 ([2]; S-tetralol oxidation): greater than 15 fold

Reference: article PMC5149398 (Journal of medicinal chemistry, 2016)
